Data as given in ChEMBL document CHEMBL4393667, “Discovery of [1,2,4]Triazolo[4,3- a]pyridines as Potent Inhibitors Targeting the Programmed Cell Death-1/Programmed Cell Death-Ligand 1 Interaction” (J Med Chem, 2019).
pIC50: −log10 of the molar value.

Assays:
[1] = target: T1, Programmed cell death protein 1/Programmed cell death 1 ligand 1 (Homo sapiens, UniProt Q15116+Q9NZQ7); experiment: Inhibition of human PD1/PDL1 protein-protein interaction after 15 mins by HTRF assay; format: protein-complex assay
T1 sequence (Q15116 whole entry): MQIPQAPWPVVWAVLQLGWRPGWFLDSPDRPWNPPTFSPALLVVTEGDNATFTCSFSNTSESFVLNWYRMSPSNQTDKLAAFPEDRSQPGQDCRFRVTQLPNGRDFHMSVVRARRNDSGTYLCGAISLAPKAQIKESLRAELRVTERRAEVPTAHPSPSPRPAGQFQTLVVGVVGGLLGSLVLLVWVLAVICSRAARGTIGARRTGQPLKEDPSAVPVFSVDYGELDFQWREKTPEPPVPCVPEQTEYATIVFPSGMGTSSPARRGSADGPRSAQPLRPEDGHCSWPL
T1 sequence (Q9NZQ7 whole entry): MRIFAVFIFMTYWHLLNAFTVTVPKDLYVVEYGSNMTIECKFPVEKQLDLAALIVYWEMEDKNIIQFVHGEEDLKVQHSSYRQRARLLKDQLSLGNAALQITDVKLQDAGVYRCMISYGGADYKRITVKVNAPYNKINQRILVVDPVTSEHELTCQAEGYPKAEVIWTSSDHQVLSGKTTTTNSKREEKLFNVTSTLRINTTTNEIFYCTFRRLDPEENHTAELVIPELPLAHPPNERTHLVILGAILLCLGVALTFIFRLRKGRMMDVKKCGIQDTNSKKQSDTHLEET

[2] = target: T1, Programmed cell death protein 1/Programmed cell death 1 ligand 1; experiment: Inhibition of human PD1/PDL1 protein-protein interaction in human PBMC-derived CD3-positive T cells co-cultured with human Hep3B cells expressing PDL1/OS-8 assessed as increase in IFNgamma secretion measured after 3 days

| SMILES | pIC50 [1] | inhibition [2] |
| --- | --- | --- |
| Cc1c(NC(=O)c2cc(CN(C)CCO)cn3ccnc23)cccc1-c1ccccc1 | < 5.00 | – |
| Cc1c(NC(=O)c2cc(CNCC(N)=O)cn3cnnc23)cccc1-c1ccccc1 | 5.53 | – |
| CC(=O)NCCNCc1cc(C(=O)Nc2cccc(-c3ccccc3)c2C)c2nncn2c1 | 5.83 | – |
| Cc1c(NC(=O)c2cc(CNCCS(N)(=O)=O)cn3cnnc23)cccc1-c1ccccc1 | 6.08 | – |
| Cc1c(NC(=O)c2cc(CN[C@H](CO)C(=O)O)cn3cnnc23)cccc1-c1ccccc1 | 5.25 | – |
| CC(=O)NCCNCc1cc(C(=O)Nc2cccc(-c3ccccc3)c2C)c2nccn2c1 | < 5.00 | – |
| Cc1c(NC(=O)c2cc(CNCCO)cn3cnnc23)cccc1-c1ccc2c(c1)OCCO2 | – | Dose-dependent effect |
| CC(=O)NCCNCc1cc(C(=O)Nc2cccc(-c3ccc4c(c3)OCCO4)c2C)c2nncn2c1 | 6.25 | – |
| COC(=O)[C@@H](CO)NCc1cc(C(=O)Nc2cccc(-c3ccccc3)c2C)c2nncn2c1 | < 5.00 | – |
| Cc1c(NC(=O)c2cc(CN(C)CCO)cn3cnnc23)cccc1-c1ccccc1 | 6.12 | – |
| CS(=O)(=O)NCCNCc1cc(C(=O)Nc2cccc(-c3ccc4c(c3)OCCO4)c2C#N)c2nncn2c1 | 6.01 | – |
| Cc1c(NC(=O)c2cc(CNCCO)cn3ccnc23)cccc1-c1ccccc1 | < 5.00 | – |
| COC(=O)[C@@H]1CCCCN1Cc1cc(C(=O)Nc2cccc(-c3ccccc3)c2C)c2nncn2c1 | < 5.00 | – |
| Cc1c(NC(=O)c2cc(CN3CCCC[C@H]3C(=O)O)cn3cnnc23)cccc1-c1ccccc1 | 5.29 | – |
| N#Cc1c(NC(=O)c2cc(CNCCO)cn3cnnc23)cccc1-c1ccc2c(c1)OCCO2 | 6.56 | – |
| Cc1c(NC(=O)c2cc(CN(C)CC(O)CO)cn3cnnc23)cccc1-c1ccccc1 (stereo unspecified) | 6.43 | – |

| SMILES | pIC50 [1] | inhibition [2] |
| --- | --- | --- |
| Cc1c(NC(=O)c2cc(CNCCS(N)(=O)=O)cn3cnnc23)cccc1-c1ccc2c(c1)OCCO2 | 5.43 | – |
| Cc1c(NC(=O)c2cc(CN(C)CCO)cn3cnnc23)cccc1-c1ccc2c(c1)OCCO2 | 6.62 | – |
| Cc1c(NC(=O)c2cc(CN3CCN(C)CC3)cn3c(C)nnc23)cccc1-c1ccccc1 | < 5.00 | – |
| COC(=O)CNCc1cc(C(=O)Nc2cccc(-c3ccccc3)c2C)c2nncn2c1 | < 5.00 | – |
| CC(=O)NCCNCc1ccc(C(=O)Nc2cccc(-c3ccccc3)c2C)c2nncn12 | < 5.00 | – |
| Cc1c(NC(=O)c2cc(CNCCO)cn3cnnc23)cccc1-c1ccccc1 | 6.13 | – |
| Cc1c(NC(=O)c2cc(CNCCO)cn3c(C)nnc23)cccc1-c1ccccc1 | < 5.00 | – |
| Cc1c(NC(=O)c2cc(CN3CCN(C)CC3)cn3cnnc23)cccc1-c1ccccc1 | 5.87 | – |
| Cc1c(NC(=O)c2ccc(CNCCO)n3cnnc23)cccc1-c1ccccc1 | < 5.00 | – |
| Cc1c(NC(=O)c2ccc(CN(C)CCO)n3cnnc23)cccc1-c1ccccc1 | < 5.00 | – |
| Cc1c(NC(=O)c2cc(CN[C@H]3CC[C@H](O)CC3)cn3cnnc23)cccc1-c1ccccc1 | 6.01 | – |
| CC(=O)NCCNCc1cc(C(=O)Nc2cccc(-c3ccc4c(c3)OCCO4)c2C#N)c2nncn2c1 | 6.44 | – |
| Cc1c(NC(=O)c2cc(CNCCNS(C)(=O)=O)cn3cnnc23)cccc1-c1ccc2c(c1)OCCO2 | 6.01 | – |
| Cc1c(NC(=O)c2cc(CN(C)CC(O)CO)cn3cnnc23)cccc1-c1ccc2c(c1)OCCO2 (stereo unspecified) | 6.32 | – |
| CN(Cc1cc(C(=O)Nc2cccc(-c3ccc4c(c3)OCCO4)c2C#N)c2nncn2c1)CC(O)CO (stereo unspecified) | 6.31 | – |
